This series is described as follows: pKa determination. Format: physicochemical. The note with it: methanol / 1 N HCl solution.

`O=C(CCCN1CCC(O)(c2ccc(Cl)cc2)CC1)c1ccc(F)cc1` [Haloperidol]: the pKa – broadly, the pH at which an ionisable group is half protonated – stood at 8.22 ± 0.09.

Values taken from publication PMC12919657 (Results in chemistry, 2025).
